Results taken from patent US7888042B2, “Methods for identifying insulin mimetics” (Ohio University, priority 2005, dated 2011).

Legend:
Type in all cases: cell-based
3T3-L1 adipocytes [1] = assay: Glucose uptake assay in 3T3-L1 adipocytes
Method: Chemical synthesis yields both the α- and β-anomers of PGG. (B) Glucose transport stimulatory activity (13, 14) of PGG was assessed by incubating adipocytes in 6-well plates with insulin or PGG for 15 min followed by the addition of [^3H]-2-deoxy-D-glucose for 10 min before quantifying uptake (13, n=3, mean±SD, Two way-ANOVA, * P<0.05; ** P<0.01). α-PGG (●); β-PGG (□); insulin (∘). (C) Glucose transport induced by insulin in the presence of α-PGG. One […] of insulin was added to adipocytes in the presence of increasing amounts of α-PGG. After induction, radioactive glucose was added, and the glucose taken up by the cells was counted.
Reagents, compound synthesis, and glucose uptake assay. Bovine insulin was purchased from Sigma. PGG, in an approximate 1:1 mixture of α- and β-PGG, was synthesized from glucose in the non-radioactive form as described (22). The identity of the compounds was confirmed by MS and NMR. The compounds were dissolved in double distilled water (ddH2O), filter sterilized, and stored as a 10 mM aqueous stock solution at −20° C. The stock solutions were diluted to final concentrations with sterile ddH2O. Glucose uptake assays in 3T3-L1 adipocytes induced by PGG were performed as described (13).

3T3-L1 adipocytes [2] = assay: Glucose uptake assay with insulin signaling pathway inhibitors; conditions: inhibitor added along with α-PGG
Method: (§1) (A) Glucose transport was measured by determining [^3H]-2-deoxyglucose uptake stimulated by either insulin or α-PGG in 3T3-L1 cells in the presence or absence of HNMPA-(AM)3, an inhibitor of IR tyrosine kinase activity (24); wortmannin, an inhibitor of PI 3-kinase (25), or cytochalasin B, an inhibitor of GLUT4 (26), (n=4, mean±SD). (B) Cells were induced by 20 or 40 μM α-PGG or 100 nM insulin for 15 min. Cell lysates were separated by PAGE and analyzed for phosphorylation of IR (in CHO-IR cells) or Akt (in adipocytes) using antibodies specific to the target proteins. (C) Cells were treated with α-PGG and insulin in a fashion similar to (B) and assayed for their respective PI-3 kinase activity with a radioactive TLC method (27). (D) In similar experiments, intact cells were analyzed by confocal microscopy for translocation of GLUT4 using anti-GLUT4 antibodies.
Insulin signaling pathway study with inhibitors. To identify the signaling pathway and its potential protein target for PGG's glucose transport activity, three inhibitors to the insulin signaling pathway were selected. […] Inhibitors were individually added to the 3T3-L1 adipocytes along with either α-PGG or insulin at predetermined concentrations during glucose uptake assays, and the inhibition was measured by the glucose taken in by the cell samples treated with or without inhibitors.

GLUT4 = GLUT4 translocation, confocal microscopy; conditions: adipocytes, 37° C., 15 min
Method: as §1
Protein phosphorylation/activation and GLUT4 translocation. To investigate signal transduction induced by α-PGG, proteins from 3T3-L1 adipocytes or CHO-IR cells (23), which were treated with α-PGG or insulin for 15 min, were isolated, separated by PAGE, blotted on nylon membranes, and analyzed by Western blotting with antibodies against either IR or Akt. […]

O=C(OC[C@H]1OC(OC(=O)c2cc(O)c(O)c(O)c2)[C@H](OC(=O)c2cc(O)c(O)c(O)c2)[C@@H](OC(=O)c2cc(O)c(O)c(O)c2)[C@@H]1OC(=O)c1cc(O)c(O)c(O)c1)c1cc(O)c(O)c(O)c1 (stereo partly drawn) [PGG, 1,2,3,4,6-penta-O-galloyl-D-glucose]
mode of action at IR for glucose transport activity (3T3-L1 adipocytes [1]): partial agonist

C=C1[C@@H](C)[C@H]2[C@H](Cc3ccccc3)NC(=O)[C@]23OC(=O)/C=C/[C@H](O)CCC[C@@H](C)C/C=C/[C@H]3[C@@H]1O [cytochalasin B]
glucose transport activity induced by α-PGG in presence of inhibitor (3T3-L1 adipocytes [2]): completely abolished

O=C(OC[C@H]1O[C@@H](OC(=O)c2cc(O)c(O)c(O)c2)[C@H](OC(=O)c2cc(O)c(O)c(O)c2)[C@@H](OC(=O)c2cc(O)c(O)c(O)c2)[C@@H]1OC(=O)c1cc(O)c(O)c(O)c1)c1cc(O)c(O)c(O)c1 [β-PGG]
induction of glucose transport (3T3-L1 adipocytes [1]; 3T3-L1 adipocytes, [3H]-2-deoxy-D-glucose uptake, 15 min incubation): induced glucose transport in adipocytes in a dose-dependent manner

insulin: Bovine insulin purchased from Sigma
GLUT4 translocation (GLUT4): translocated to the plasma membrane
